Measured values published in patent publication US20130040935A1, “CYCLIC KETO-ENOLS FOR THERAPY” (BAYER INTELLECTUAL PROPERTY GMBH, priority 2010, published 2013).
Where two headings read alike, the source gives them in different places.

Legend:
[1] = target: T1, human ACC1 (acetyl-coenzyme A carboxylase alpha transcript variant 1) (Homo sapiens, UniProt Q13085); test: Human ACC1 enzyme assay, Assay B1 (ADP-Glo); assay type: biochemical
T1 construct: FLAG (C); made in house; host or cells: baculovirus-infected insect cells (Hi5)

[2] = target: human ACC2 (acetyl-coenzyme A carboxylase 2) (Homo sapiens, UniProt O00763); test: Human ACC2 enzyme assay, Assay B2 (ADP-Glo);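 further: human ACC2 activity read as ADP product, detected by luciferase glow luminescence after residual ATP removal, enzyme near 2 ng/µl in linear range, detection steps at 22 °C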
Sequence of human ACC2 (acetyl-coenzyme A carboxylase 2) (O00763 27-2458 limits assumed): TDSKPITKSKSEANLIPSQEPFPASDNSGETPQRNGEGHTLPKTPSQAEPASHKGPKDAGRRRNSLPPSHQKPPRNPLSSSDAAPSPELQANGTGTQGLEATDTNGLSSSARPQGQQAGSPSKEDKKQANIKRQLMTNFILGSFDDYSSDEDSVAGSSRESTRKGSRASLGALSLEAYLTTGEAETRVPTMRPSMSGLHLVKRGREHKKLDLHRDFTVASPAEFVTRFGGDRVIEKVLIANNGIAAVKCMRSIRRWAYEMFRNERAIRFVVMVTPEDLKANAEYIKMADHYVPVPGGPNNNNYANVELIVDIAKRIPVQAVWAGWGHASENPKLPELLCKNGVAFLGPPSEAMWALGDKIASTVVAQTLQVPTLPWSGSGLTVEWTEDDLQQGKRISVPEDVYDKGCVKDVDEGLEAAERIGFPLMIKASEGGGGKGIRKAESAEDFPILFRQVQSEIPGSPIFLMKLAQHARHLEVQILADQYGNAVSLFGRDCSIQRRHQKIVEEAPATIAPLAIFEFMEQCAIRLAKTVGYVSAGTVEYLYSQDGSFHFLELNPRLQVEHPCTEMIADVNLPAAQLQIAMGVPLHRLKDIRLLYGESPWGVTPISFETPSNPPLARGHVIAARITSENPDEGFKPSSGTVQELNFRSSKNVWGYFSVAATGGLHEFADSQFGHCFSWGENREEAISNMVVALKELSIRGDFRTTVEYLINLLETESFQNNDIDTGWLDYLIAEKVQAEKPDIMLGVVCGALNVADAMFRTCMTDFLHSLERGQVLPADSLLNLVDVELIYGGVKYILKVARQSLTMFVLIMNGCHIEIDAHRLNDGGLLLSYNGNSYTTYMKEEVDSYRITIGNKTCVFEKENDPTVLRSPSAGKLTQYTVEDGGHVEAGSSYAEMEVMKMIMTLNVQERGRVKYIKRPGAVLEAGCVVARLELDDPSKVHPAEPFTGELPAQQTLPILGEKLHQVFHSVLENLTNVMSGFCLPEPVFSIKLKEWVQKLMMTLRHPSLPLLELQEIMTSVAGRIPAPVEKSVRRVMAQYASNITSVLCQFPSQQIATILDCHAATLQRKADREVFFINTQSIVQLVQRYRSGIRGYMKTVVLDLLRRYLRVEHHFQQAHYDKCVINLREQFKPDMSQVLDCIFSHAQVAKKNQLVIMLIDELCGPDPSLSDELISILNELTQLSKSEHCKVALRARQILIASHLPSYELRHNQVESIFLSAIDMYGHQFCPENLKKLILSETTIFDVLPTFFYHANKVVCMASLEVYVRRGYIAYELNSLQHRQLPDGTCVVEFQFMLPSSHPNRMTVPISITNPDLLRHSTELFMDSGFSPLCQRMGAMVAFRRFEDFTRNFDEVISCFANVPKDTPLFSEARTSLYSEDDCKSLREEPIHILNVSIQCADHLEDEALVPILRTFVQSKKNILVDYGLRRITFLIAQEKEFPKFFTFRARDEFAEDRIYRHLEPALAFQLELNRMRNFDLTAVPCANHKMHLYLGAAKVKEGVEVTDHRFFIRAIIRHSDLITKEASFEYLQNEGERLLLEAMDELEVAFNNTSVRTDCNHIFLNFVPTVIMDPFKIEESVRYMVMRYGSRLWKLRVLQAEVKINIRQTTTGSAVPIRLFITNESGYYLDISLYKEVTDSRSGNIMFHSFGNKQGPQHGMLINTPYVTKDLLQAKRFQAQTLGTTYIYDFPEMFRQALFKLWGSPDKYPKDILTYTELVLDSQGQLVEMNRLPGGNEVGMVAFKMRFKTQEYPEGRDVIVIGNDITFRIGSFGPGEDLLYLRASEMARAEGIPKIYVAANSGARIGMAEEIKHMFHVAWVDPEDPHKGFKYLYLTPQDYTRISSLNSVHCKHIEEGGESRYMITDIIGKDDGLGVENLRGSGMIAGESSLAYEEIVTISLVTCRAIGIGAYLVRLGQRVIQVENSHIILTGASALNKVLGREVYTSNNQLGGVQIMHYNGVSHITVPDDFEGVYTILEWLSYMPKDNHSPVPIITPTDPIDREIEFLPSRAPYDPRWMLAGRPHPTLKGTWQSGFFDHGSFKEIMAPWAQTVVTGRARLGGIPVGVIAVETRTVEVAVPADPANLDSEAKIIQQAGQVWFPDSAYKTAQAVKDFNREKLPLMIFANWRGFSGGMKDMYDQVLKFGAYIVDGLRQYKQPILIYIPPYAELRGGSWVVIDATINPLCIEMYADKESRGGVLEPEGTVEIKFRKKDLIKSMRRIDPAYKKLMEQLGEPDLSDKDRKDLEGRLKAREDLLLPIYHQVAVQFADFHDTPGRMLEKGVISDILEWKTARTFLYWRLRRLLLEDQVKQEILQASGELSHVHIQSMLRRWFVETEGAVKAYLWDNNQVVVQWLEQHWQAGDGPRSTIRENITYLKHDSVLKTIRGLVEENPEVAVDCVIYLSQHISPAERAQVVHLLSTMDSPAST

MCF7 = test: Cell proliferation assay (CellTiter-Glo, 96 h), MCF7; assay type: cell-based; conditions: Homo sapiens
Method: In accordance with the invention, the substances were tested in cell-based assays for the ability of the substances of inhibiting tumour cell proliferation after a 96-hour incubation with the substance. Cell viability was tested using the CellTiter-Glo® luminescent cell viability assay (Promega). The cells were sown at a density of 2000-5000 cells/well (depending on the cell line) in 100 μl growth medium on 96-well microtitre plates. For each cell line examined, cells were sown on a separate plate to determine the luminescence at t=0 hours and t=96 hours. After overnight incubation at 37° C., the luminescence values for the t=0 samples were determined. The dose plates for the t=96 hours points in time were treated with substances diluted with growth medium. The cells were then incubated at 37° C. for 96 hours, and the luminescence values for the t=96 hours sample were then determined. For data analysis, the t=0 values were subtracted from the t=96 hour values for treated and untreated samples. The differences in luminescence in percent between substance-treated samples and control values were used to determine the growth inhibition in percent.
The substances were tested in the following cell lines which represent the stated indications in an exemplary manner: […]

[3] = Assay B1, ADP-Glo, read-out: ACC 1 (=B1) IC50
[4] = Assay B1, read-out: ACC 1 (=B1) IC50
[5] = MCF7, Table 9a, 96-hour incubation

| SMILES | IC50 [1] | IC50 [2] | IC50 (MCF7; MCF7 cells) | IC50 [1, 3] | IC50 [1, 4] | IC50 (MCF7; [5]) | IC50 ([2]; read-out: ACC 2 (=B2) IC50, Assay B2) |
| --- | --- | --- | --- | --- | --- | --- | --- |
| Cc1ccc(-c2ccc(Cl)cc2)cc1C1=C(O)C(C)(C)OC1=O [2-3, 3-(4′-chloro-4-methylbiphenyl-3-yl)-4-hydroxy-5,5-dimethylfuran-2(5H)-one] | 3.73 µM | > 20 µM | 1.06 µM | – | – | – | – |
| Cc1ccc(-c2ccc(Cl)cc2)c(C)c1C1=C(O)C2(CCCCC2)OC1=O [2-4, 3-(4′-chloro-2,4-dimethylbiphenyl-3-yl)-4-hydroxy-1-oxaspiro[4.5]dec-3-en-2-one] | – | 2.7 µM | 0.624 µM | 0.175 µM | – | – | – |
| Cc1cc(C)c(-c2ccc(Cl)cc2)c(C)c1C1=C(O)C2(CCCCC2)OC1=O [2-6, 3-(4′-chloro-2,4,6-trimethylbiphenyl-3-yl)-4-hydroxy-1-oxaspiro[4.5]dec-3-en-2-one] | – | 5.42 µM | 0.724 µM | 6.85 µM | – | – | – |
| COC1CCCC2(C1)OC(=O)C(c1c(C)cc(C)c(-c3ccc(Cl)cc3)c1C)=C2O (stereo not drawn) [2-12, 3-(4′-chloro-2,4,6-trimethylbiphenyl-3-yl)-4-hydroxy-7-methoxy-1-oxaspiro[4.5]dec-3-en-2-one] | 4.26 µM | 3.42 µM | 1.24 µM | – | – | – | – |
| COCC1CCC2(CC1)OC(=O)C(c1c(C)ccc(-c3ccc(Cl)cc3)c1C)=C2O (stereo not drawn) [2-17, 3-(4′-chloro-2,4-dimethylbiphenyl-3-yl)-4-hydroxy-8-(methoxymethyl)-1-oxaspiro[4.5]dec-3-en-2-one] | – | 1.18 µM | 0.4 µM | 0.058 µM | – | – | – |
| COCCC1CCCC2(C1)OC(=O)C(c1cc(-c3ccc(Cl)cc3)ccc1C)=C2O (stereo not drawn) [2-18, 3-(4′-chloro-4-methylbiphenyl-3-yl)-4-hydroxy-7-(2 methoxyethyl)-1-oxaspiro[4.5]dec-3-en-2-one] | – | 12.2 µM | 0.935 µM | 0.276 µM | – | – | – |
| COCC1CCC2(CC1)OC(=O)C(c1cc(-c3ccc(Cl)cc3)ccc1C)=C2O (stereo not drawn) [2-20, 3-(4′-chloro-4-methylbiphenyl-3-yl)-4-hydroxy-8-(methoxymethyl)-1-oxaspiro[4.5]dec-3-en-2-one] | – | 1.72 µM | 0.214 µM | 0.102 µM | – | – | – |
| Cc1ccc(-c2ccc(Cl)cc2)c(C)c1C1=C(O)[C@]2(CC[C@]3(CCCO3)CC2)OC1=O [2-26, (5s,8r)-3-(4′-chloro-2,4-dimethylbiphenyl-3-yl)-4-hydroxy-1,9-dioxadispiro[4.2.4.2]tetradec-3-en-2-one] | – | > 20 µM | 5.52 µM | 6.11 µM | – | – | – |
| Cc1ccc(-c2ccc(F)cc2)cc1C1=C(O)[C@]2(CC[C@@]3(CCCO3)CC2)OC1=O [2-28, (5r,8s)-3-(4′-fluoro-4-methylbiphenyl-3-yl)-4-hydroxy-1,9-dioxadispiro[4.2.4.2]tetradec-3-en-2-one] | – | 4.6 µM | 0.296 µM | 0.128 µM | – | – | – |
| Cc1cc(C)c(-c2ccc(Cl)cc2)c(C)c1C1=C(O)[C@]2(CC[C@@]3(CCCO3)CC2)OC1=O [2-31, (5r,8s)-3-(4′-chloro-2,4,6-trimethylbiphenyl-3-yl)-4-hydroxy-1,9-dioxadispiro[4.2.4.2]tetradec-3-en-2-one] | 2 µM | 0.076 µM | 0.49 µM | – | – | – | – |
| Cc1ccc(-c2ccc(Cl)cc2)c(C)c1C1=C(O)C2(CCC(OCC(F)(F)F)CC2)OC1=O (stereo not drawn) [2-32, 3-(4′-chloro-2,4-dimethylbiphenyl-3-yl)-4-hydroxy-8-(2,2,2-trifluoroethoxy)-1-oxaspiro[4.5]dec-3-en-2-one] | 0.339 µM | 2.82 µM | 0.112 µM | – | – | – | – |
| Cc1cc(C)c(-c2ccc(Cl)cc2)cc1C1=C(O)C2(CCSCC2)OC1=O [2-42, 3-(4′-chloro-4,6-dimethylbiphenyl-3-yl)-4-hydroxy-1-oxa-8-thiaspiro[4.5]dec-3-en-2-one] | – | 1.56 µM | 0.466 µM | 0.246 µM | – | – | – |
| Cc1cc(C)c(-c2ccc(Cl)cc2)cc1C1=C(O)C2(CCCCCC2)OC1=O [2-43, 3-(4′-chloro-4,6-dimethylbiphenyl-3-yl)-4-hydroxy-1-oxaspiro[4.6]undec-3-en-2-one] | 0.168 µM | 0.737 µM | 0.263 µM | – | – | – | – |
| COC1CCC2(CC1)OC(=O)C(c1cc(-c3ccc(Cl)cc3)c(C)cc1C)=C2O (stereo not drawn) [2-44, 3-(4′-chloro-4,6-dimethylbiphenyl-3-yl)-4-hydroxy-8-methoxy-1-oxaspiro[4.5]dec-3-en-2-one] | 0.22 µM | 0.244 µM | 0.121 µM | – | – | – | – |
| Cc1cc(C)c(-c2ccc(Cl)cc2)cc1C1=C(O)C(C)OC1=O (stereo not drawn) [2-45, 3-(4′-chloro-4,6-dimethylbiphenyl-3-yl)-4-hydroxy-5-methylfuran-2(5H)-one] | 1.83 µM | 17.5 µM | 6.7 µM | – | – | – | – |
| Cc1cc(C)c(-c2ccc(Cl)cc2)c(C)c1C1=C(O)C2(CCCCCC2)OC1=O [2-48, 3-(4′-chloro-2,4,6-trimethylbiphenyl-3-yl)-4-hydroxy-1-oxaspiro[4.6]undec-3-en-2-one] | – | 0.417 µM | 0.762 µM | 1.54 µM | – | – | – |

| SMILES | IC50 [1] | IC50 [2] | IC50 (MCF7; MCF7 cells) | IC50 [1, 3] | IC50 [1, 4] | IC50 (MCF7; [5]) | IC50 ([2]; read-out: ACC 2 (=B2) IC50, Assay B2) |
| --- | --- | --- | --- | --- | --- | --- | --- |
| Cc1cc(C)c(-c2ccc(Cl)cc2)cc1C1=C(O)C2(CCCCC2)SC1=O [3-3, 3-(4′-chloro-4,6-dimethylbiphenyl-3-yl)-4-hydroxy-1-thiaspiro[4.5]dec-3-en-2-one] | – | 1.15 µM | – | – | 0.265 µM | 0.575 µM | – |
| Cc1ccc(-c2ccc(C)c(C3=C(O)C4(CCCCC4)CC3=O)c2)cc1 [6-1, 3-(4,4′-dimethylbiphenyl-3-yl)-4-hydroxyspiro[4.5]dec-3-en-2-one] | – | 19.7 µM | – | – | 0.411 µM | 0.545 µM | – |
| Cc1ccc(-c2ccc(Cl)cc2Cl)cc1C1=C(O)C2(CCCCC2)CC1=O [6-2, 3-(2′,4′-dichloro-4-methylbiphenyl-3-yl)-4-hydroxyspiro[4.5]dec-3-en-2-one] | – | 3.23 µM | – | – | 0.263 µM | 0.194 µM | – |
| CCC1CCC2(CC1)CC(=O)C(c1cc(-c3ccc(Cl)cc3)ccc1C)=C2O (stereo not drawn) [6-5, 3-(4′-chloro-4-methylbiphenyl-3-yl)-8-ethyl-4-hydroxyspiro[4.5]dec-3-en-2-one] | – | 1.21 µM | – | – | 0.523 µM | 0.605 µM | – |
| CCCC1CCC2(CC1)CC(=O)C(c1cc(-c3ccc(Cl)cc3)ccc1C)=C2O (stereo not drawn) [6-6, 3-(4′-chloro-4-methylbiphenyl-3-yl)-4-hydroxy-8-propylspiro[4.5]dec-3-en-2-one] | – | 1.25 µM | – | – | 0.946 µM | 0.582 µM | – |
| Cc1ccc(-c2ccc(Cl)cc2)cc1C1=C(O)C2(CCCCCC2)CC1=O [6-7, 3-(4′-chloro-4-methylbiphenyl-3-yl)-4-hydroxyspiro[4.6]undec-3-en-2-one] | – | 7.19 µM | – | – | 1.03 µM | 0.338 µM | – |
| Cc1cc(C)c(-c2ccc(Cl)cc2)cc1C1=C(O)C2(CCCCC2)CC1=O [6-8, 3-(4′-chloro-4,6-dimethylbiphenyl-3-yl)-4-hydroxyspiro[4.5]dec-3-en-2-one] | – | 0.151 µM | – | – | 1.16 µM | 0.254 µM | – |
| Cc1cc(C)c(-c2ccc(Cl)cc2)c(C)c1C1=C(O)C2(CCCCC2)CC1=O [6-9, 3-(4′-chloro-2,4,6-trimethylbiphenyl-3-yl)-4-hydroxyspiro[4.5]dec-3-en-2-one] | ≥ 20 µM | 2.12 µM | – | – | – | 1.52 µM | – |
| Cc1cc(C)c(-c2ccc(Cl)cc2)cc1C1=C(O)CC(C)(C)CC1=O [7-3, 2-(4′-chloro-4,6-dimethylbiphenyl-3-yl)-3-hydroxy-5,5-dimethylcyclohex-2-en-1-one] | – | 13 µM | – | – | 1.74 µM | 0.974 µM | – |
| Cc1cc(C)c(-c2ccc(Cl)cc2)cc1C1=C(O)C(C)(C)CCC1=O [7-4, 2-(4′-chloro-4,6-dimethylbiphenyl-3-yl)-3-hydroxy-4,4-dimethylcyclohex-2-en-1-one] | – | > 20 µM | – | – | 7.11 µM | 2.63 µM | – |
| Cc1ccc(-c2ccc(Cl)cc2)cc1C1=C(O)C(C)(C)CNC1=O [9-2, 3-(4′-chloro-4-methylbiphenyl-3-yl)-4-hydroxy-5,5-dimethyl-5,6-dihydropyridin-2(1H)-one] | – | > 20 µM | 1.72 µM | – | 11.2 µM | – | – |
| Cc1ccc(-c2ccc(Cl)cc2)cc1C1=C(O)C2(CCCCC2)CNC1=O [9-3, 4-(4′-chloro-4-methylbiphenyl-3-yl)-5-hydroxy-2-azaspiro[5.5]undec-4-en-3-one] | – | > 20 µM | 1.53 µM | – | 2.34 µM | – | – |
| Cc1ccc(-c2ccc(Cl)c(Cl)c2)cc1-c1c(O)c2ccc(Cl)cc2[nH]c1=O [9-7, 7-chloro-3-(3′,4′-dichloro-4-methyl-biphenyl-3-yl)-4-hydroxyquinolin-2(1H)-one] | – | 11.2 µM | 1.1 µM | – | 0.308 µM | – | – |
| Cc1ccc(-c2ccc(Cl)cc2)cc1-c1c(O)c2ccc(Cl)cc2[nH]c1=O [9-11, 7-chloro-3-(4′-chloro-4-methylbiphenyl-3-yl)-4-hydroxyquinolin-2(1H)-one] | – | – | 0.299 µM | – | 0.397 µM | – | 4.07 µM |
| Cc1ccc(-c2ccc(Cl)cc2)cc1C1=C(O)C(C)(C)C(C)(C)NC1=O [9-14, 3-(4′-chloro-4-methylbiphenyl-3-yl)-4-hydroxy-5,5,6,6-tetramethyl-5,6-dihydropyridin-2(1H)-one] | – | > 20 µM | 1.46 µM | – | 6.47 µM | – | – |
